According to US20240300904A1, “PYRIDAZINONES FOR THE TREATMENT OR PREVENTION OF HYPERTENSION” (UNIVERSITETET I OSLO, priority 2021, published 2024):

Legend:
[1] = target: T1, human (h) natriuretic peptide receptor A (hNPR-A) (Homo sapiens, UniProt P16066); test: AlphaScreen assay for cGMP: BNP-mediated NPR-A activity (cGMP production); format: cell-based; details: conc. response of compound + 0.1 nM BNP; for EC50: NPR-A-expressing HEK293 cells, read-out: -LogEC50 (compound) (converted); for Emax: percentage of maximum BNP-mediated cGMP production, read-out: Max Response
T1 construct: expressed in transfected cells
T1 sequence (P16066 33-1061): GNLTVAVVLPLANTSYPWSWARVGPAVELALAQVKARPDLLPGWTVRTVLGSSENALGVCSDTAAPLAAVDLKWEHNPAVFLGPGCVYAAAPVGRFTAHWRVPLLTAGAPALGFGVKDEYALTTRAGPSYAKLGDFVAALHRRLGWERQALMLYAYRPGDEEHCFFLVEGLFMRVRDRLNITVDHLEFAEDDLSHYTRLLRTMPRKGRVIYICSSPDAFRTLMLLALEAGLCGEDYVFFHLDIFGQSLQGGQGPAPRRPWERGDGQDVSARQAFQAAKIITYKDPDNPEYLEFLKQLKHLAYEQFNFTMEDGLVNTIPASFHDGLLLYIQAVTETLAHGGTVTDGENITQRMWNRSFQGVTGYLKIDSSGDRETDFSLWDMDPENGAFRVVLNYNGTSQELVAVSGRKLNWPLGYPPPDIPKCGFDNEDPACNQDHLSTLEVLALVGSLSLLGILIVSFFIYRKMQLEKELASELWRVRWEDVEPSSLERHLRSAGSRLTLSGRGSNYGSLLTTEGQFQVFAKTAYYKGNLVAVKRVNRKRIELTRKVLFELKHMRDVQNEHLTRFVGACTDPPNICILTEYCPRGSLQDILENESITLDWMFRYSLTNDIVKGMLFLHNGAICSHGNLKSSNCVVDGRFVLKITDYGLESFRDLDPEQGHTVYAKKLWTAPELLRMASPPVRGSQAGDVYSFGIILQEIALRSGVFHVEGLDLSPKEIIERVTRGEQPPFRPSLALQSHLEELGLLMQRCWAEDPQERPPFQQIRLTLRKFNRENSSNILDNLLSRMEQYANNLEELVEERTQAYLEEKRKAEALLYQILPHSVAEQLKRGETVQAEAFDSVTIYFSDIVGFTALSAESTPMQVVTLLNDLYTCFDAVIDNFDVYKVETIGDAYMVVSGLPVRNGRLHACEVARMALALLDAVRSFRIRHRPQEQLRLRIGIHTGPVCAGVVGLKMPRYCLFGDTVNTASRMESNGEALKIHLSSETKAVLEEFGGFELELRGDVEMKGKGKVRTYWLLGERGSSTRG
T1 sequence (P16860 103-134 partner limits assumed): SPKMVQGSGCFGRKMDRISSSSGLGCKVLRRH
Description: (§1) QBIHEK293A cells stably transfected with human (h) natriuretic peptide receptor A (hNPR-A) and hNPR-B were made as described in Bach et al., Naunyn Schmiedebergs Arch. Pharmacol. 2014; 387:5-14. Cells were grown in DMEM (Dulbecco's Modified Eagle's Medium, Gibco®, ThermoFischer Scientific) supplemented with 10% Fetal Bovine Serum (FBS), 100 U/ml penicillin, 0.1 mg/ml streptomycin, and 0.4 mg/ml G418 (geneticin) as selection antibiotic.
(§2) The AlphaScreen assay for cGMP (Perkin Elmer) was performed as described in Bach et al. (see above). NPR-A and NPR-B expressing HEK293 cells were split the day before the experiment and harvested using an EDTA solution (Versene, Invitrogen, ThermoFischer Scientific). A final concentration of 6000 cells/well was re-suspended in stimulation buffer (5 mM HEPES in HBSS at pH 7.4, 0.1% BSA) with IBMX (0.7 mM final). Compounds were dissolved in stimulation buffer and added to wells in increasing concentrations. Cells were incubated with the indicated compounds 20 minutes before addition of agonists (human BNP, human CNP or human proBNP) in various concentrations. Cells were stimulated for 20 minutes with agonist before the reactions were stopped (i.e. cells lysed) by adding the AlphaScreen Acceptor bead mix (Acceptor beads-anti-cGMP antibody and 0.5% Tween-20 in 5 mM HEPES buffer at pH 7.4). After 1 hour incubation, the Donor bead mix (Donor beads, biotinylated cGMP, 0.5% Tween-20 in 5 mM HEPES buffer at pH 7.4) was added (40 μl total volume) and incubation continued for 2 hours. The luminescence signals were analyzed quantitatively by reading of the plates on the EnVision® Multilabel Plate Reader (Perkin Elmer) using AlphaScreen emission 570 nm filter.

[2] = target: T2, human (h) natriuretic peptide receptor A (hNPR-A) (Homo sapiens, UniProt P16066); test: AlphaScreen assay for cGMP: proBNP-mediated NPR-A activity; format: cell-based; details: conc. response of compound + 2 nM proBNP
T2 construct: expressed in transfected cells
T2 sequence (P16066 33-1061): T1 sequence (P16066 33-1061)
T2 sequence (P16860 27-134 partner): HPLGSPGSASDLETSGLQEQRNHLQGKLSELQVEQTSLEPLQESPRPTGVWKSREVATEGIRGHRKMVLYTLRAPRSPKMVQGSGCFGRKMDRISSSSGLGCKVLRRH
Description: as §1
as §2, with “Cells were stimulated for 20 minutes with agonist before the reactions were stopped (i.e. cells lysed) by adding the AlphaScreen Acceptor bead mix (Acceptor beads-anti-cGMP antibody and 0.5% Tween-20 in 5 mM HEPES buffer at pH 7.4). After 1 hour incubation, the Donor bead mix (Donor beads, biotinylated cGMP, 0.5% Tween-20 in 5 mM HEPES buffer at pH 7.4) was added (40 μl total volume) and incubation continued for 2 hours.” left out

NPR-A = target: T3, NPR-A (Homo sapiens, UniProt P16066); test: Whole-cell binding assays with 125I-ANP in intact NPR-A expressing HEK293 cells
T3 construct: expressed in transfected cells; host or cells: HEK293 cells expressing NPR-A
T3 sequence (P16066 33-1061): T1 sequence (P16066 33-1061)
Description: as §1
Binding assays were carried out in intact NPR-A expressing HEK293 cells as described in Dickey et al., J Biol Chem. 2009; 284: 19196-202.

HeLa cells = test: MTT assay (cytotoxicity); format: cell-based; details: 24 and 48 h, compared with compounds 3 and 11
Description: Cells were incubated for 24 and 48 h with increasing concentrations of the indicated compound. The data represent formazan formation (absorbance) as a percentage of the negative control (1% DMSO).
The MTT (3-(4,5-dimethylthiazol-2-yl)-2,5-diphenyltetrazolium bromide) tetrazolium reduction assay was used to measure cytotoxicity of the compounds in vitro. Viable cells with active metabolism convert MTT into a purple colored formazan product with an absorbance maximum near 570 nm. HeLa cells were plated in 96-well plates in culture medium (DMEM (Dulbecco's Modified Eagle's Medium, Gibco®, ThermoFischer Scientific) supplemented with 10% Fetal Bovine Serum (FBS), 100 U/ml penicillin, 0.1 mg/ml streptomycin) the day before experiments. Cells were incubated for 24 or 48 h at 37° C. with increasing concentrations of each compound (in 1% DMSO). 1% DMSO and 20 mM H2O2 in culture medium were used as negative and positive control, respectively. MTT solution at a final concentration of 0.45 mg/ml was added to the wells and cells incubated for 1 to 4 hours at 37° C. Solubilization solution (40% (vol/vol) dimethylformamide (DMF), 2% (vol/vol) glacial acetic acid and 16% (wt/vol) sodium dodecyl sulfate (SDS)) was added to each well to dissolve formazan crystals. Absorbance was measured at 570 nm.

EC50 [1] [nM]	Emax [1] [%]	Compound	other results
200	42.5	O=C(Cn1ncc(Cl)c(Cl)c1=O)c1ccc(Cl)cc1Cl [Compound 11, 4,5-dichloro-2-[2-(2,4-dichlorophenyl)-2-oxo-ethyl]pyridazin-3-one]	
398	44.3	O=C(Cn1ncc(Cl)c(Cl)c1=O)c1ccc(Cl)c(F)c1 [Compound 12, 4,5-dichloro-2-[2-(4-chloro-3-fluoro-phenyl)-2-oxo-ethyl]pyridazin-3-one]	
79.4	37	O=C(Cn1ncc(Br)c(Br)c1=O)c1ccc(Cl)cc1 [Compound 10]	
794	27.8	CC(C)c1ccc(CCNC(=O)Cn2ncc(Cl)c(Cl)c2=O)cc1 [Compound 15, 2-(4,5-dichloro-6-oxopyridazin-1(6H)-yl)-N-(4-isopropylphenethyl)acetamide]	
6310	49.4	O=C(Cn1ncc(Cl)c(Cl)c1=O)NCc1cnn(-c2ccccc2)c1 [Compound 20, 2-(4,5-dichloro-6-oxopyridazin-1(6H)-yl)-N-((1-phenyl-1H-pyrazol-4-yl)methyl)acetamide]	
2510	45.4	Cc1cc(C(=O)Cn2ncc(Cl)c(Cl)c2=O)ccc1Cl [Compound 14, 4,5-dichloro-2-[2-(4-chloro-3-methyl-phenyl)-2-oxo-ethyl]pyridazin-3-one]	
794	39.4	O=C(Cn1ncc(Cl)c(Cl)c1=O)NCCc1c(Cl)cccc1Cl [Compound 17, 2-(4,5-dichloro-6-oxopyridazin-1(6H)-yl)-N-(2,6-dichlorophenethyl)acetamide]	
100	41	Cc1cc(Cl)ccc1C(=O)Cn1ncc(Cl)c(Cl)c1=O [Compound 13, 4,5-dichloro-2-[2-(4-chloro-2-methyl-phenyl)-2-oxo-ethyl]pyridazin-3-one]	
200	30.7	O=C(Cn1ncc(Cl)c(Cl)c1=O)NC1CC1c1cnn(-c2ccccc2)c1 (racemic) [Compound 18, rac-2-(4,5-dichloro-6-oxopyridazin-1(6H)-yl)-N-((1R,2S)-2-(1-phenyl-1H-pyrazol-4-yl)cyclopropyl)acetamide]	
1000	45.7	O=C(Cn1ncc(Cl)c(Cl)c1=O)Nc1cnn(-c2ccccc2)c1 [Compound 19, 2-(4,5-dichloro-6-oxopyridazin-1(6H)-yl)-N-(1-phenyl-1H-pyrazol-4-yl)acetamide]	
794	41	O=C(Cn1ncc(Cl)c(Cl)c1=O)NCCc1cnn(-c2ccccc2)c1 [Compound 16, 2-(4,5-dichloro-6-oxopyridazin-1(6H)-yl)-N-(2-(1-phenyl-1H-pyrazol-4-yl)ethyl)acetamide]	

The next lines start with the compound.

Compound	EC50 [1] [nM]	Emax [1] [%]	other results
O=C(Cn1ncc(Cl)c(Cl)c1=O)c1ccc(Cl)s1 [Compound 7]	251	33.4	
COc1ccc(C(=O)Cn2ncc(Cl)c(Cl)c2=O)cc1 [Compound 5, 4,5-dichloro-2-(2-(4-methoxyphenyl)-2-oxoethyl) pyridazin-3(2H)-one]	3980	38.6	
O=C(Cn1nccc(Cl)c1=O)c1ccc(Cl)cc1 [Compound 3, 4-chloro-2-(2-(4-chlorophenyl)-2-oxoethyl)pyridazin-3(2H)-one]	12600	48.6	
O=C(Cn1ncc(Cl)c(Cl)c1=O)c1ccc(Cl)cc1 [Compound 2]	251	45.3	EC50 ([2]; NPR-A-expressing HEK293 cells, read-out: -LOGEC50 (compound) (converted)): 1000 nM; Emax ([2]; percentage of maximum proBNP-mediated cGMP production, read-out: Max response): 99%; Emax (NPR-A; compound + 50 pM 125I-ANP, response of 50 pM 125I-ANP defined as 100%, read-out: Max Response): 173%; EC50 (NPR-A; conc. response compound + 50 pM 125I-ANP, NPR-A HEK293 cells, read-out: -LogEC50 (compound) (converted)): 2 nM; Fold change in Bmax (NPR-A; saturation binding, conc. response 125I-ANP + 10 μM compound): 2.3; toxicity in MTT assay relative to corresponding dichloro compounds (HeLa cells): lower toxicity
O=C(Cn1ncc(Cl)c(Cl)c1=O)c1ccc2c(c1)CCCC2 [Compound 9]	1260	27.7	
O=C(Cn1ncc(Cl)c(Cl)c1=O)C12CC3CC(CC(C3)C1)C2 [Compound 1]	2510	53.1	
O=C(Cn1ncc(Cl)cc1=O)c1ccc(Cl)cc1 [Compound 4, 5-chloro-2-(2-(4-chlorophenyl)-2-oxoethyl)pyridazin-3(2H)-one]	5010	35.2	
N#Cc1ccc(C(=O)Cn2ncc(Cl)c(Cl)c2=O)cc1 [Compound 6, 4-(2-(4,5-dichloro-6-oxopyridazin-1(6H)-yl)acetyl) benzonitrile]	2510	44.1	
O=C(Cn1ncc(Cl)cc1=O)c1ccc(Cl)s1 [Compound 8, 5-chloro-2-(2-(5-chlorothiophen-2-yl)-2-oxoethyl) pyridazin-3(2H)-one]	1580	27	
